According to US20240299559A1, “COMPOUNDS THAT MEDIATE PROTEIN DEGRADATION AND METHODS OF USE THEREOF” (Monte Rosa Therapeutics, Inc., priority 2021, published 2024):
pKi: −log10 of the molar value.

Key:
CRBN-DDB1 = CRBN-DDB1 (Homo sapiens, UniProt Q96SW2); experiment: Compound binding to CRBN by HTRF assay; settings: CRBN-DDB1 2.5 nM, Cy5-Thalidomide 100 nM probe; Ki from geometric mean of IC50 by Cheng-Prustoff transformation
Protocol: Compound activity was monitored in a Homogenous Time-Resolved Fluorescence (HTRF) assay using 1-[5-({2-[2-(2-{[2-(2,6-dioxopiperidin-3-yl)-1,3-dioxo-2,3-dihydro-1H-isoindol-4-yl]oxy}acetamido)ethoxy]ethyl}carbamoyl)pentyl]-3,3-dimethyl-2-[(1E,3E)-5-[(2E)-1,3,3-trimethyl-5-sulfo-2,3-dihydro-1H-indol-2-ylidene]penta-1,3-dien-1-yl]-3H-indol-1-ium-5-sulfonate as a fluorescent probe. Biochemical assays were conducted in Greiner white 384 well HiBase plates (Cat. No 784075-25) in 10 μL total volume. A one pot detection solution of CRBN-DDB1 (2.5 nM), Anti-His Terbium Cryptate Gold (1×, PerkinElmer Cat. #: 61HI2TLB), and Cy5-Thalidomide (100 nM, Tenova Cat.: T52461) was prepared in 20 mM HEPES, 20 mM NaCl, 0.2 mM TCEP, 0.2 mM EDTA, and 0.005% Tween20 was dispensed to each assay plate. Compounds were stored in dry, ambient temperatures at 10 mM. A 10-point, 1:3 dilution series was prepared from 10 mM stock concentrations in Echo-compatible LDV plates. 10 nL of each compound dilution series was dispensed into assays wells using an Echo 650 (Labcyte inc. USA). 10 nL of 10 mM Lenalidomide was transferred into the active-control wells for the assay and 10 nL of DMSO was transferred into the neutral-control wells. The assay was then allowed to incubate for 30 min at ambient temperature after transferring compound. Plate measurements were taken on a Pherastar FSX (BMG Labtech, Germany) using the HTRF Red filter (Ex. 337 nm, em1:620 nm, em2:665 nm) (Flashes: 50, Integration time: 60-400 us, Z-height: 10 mm, Ratio-multipler: 10,000). The HTRF signal was then subsequently normalized to the neutral and active controls. Analysis and IC50 values were derived using KNIME analytics (KNIME Zurich) transformation and fitting within Collaborative Drug Discovery (Collaborative Drug Discovery USA). Ki was derived from the geometric mean of the IC50 values using the Cheng-Prustoff transformation.

CDK2 = molecular target: T1, CDK2 (Homo sapiens, UniProt P24941); experiment: CDK2 HiBiT assay (degradation, Dmax); assay type: cell-based; settings: HEK293 clonal lines with CRISPR KI HiBiT tag on CDK2, stably expressing LgBiT; 24 hours incubation
T1 construct: HEK293 clonal lines with CRISPR KI HiBiT tag on CDK2 proteins; host or cells: HEK293 clonal line with CRISPR knock-in HiBiT on CDK2, stably expressing LgBiT
Protocol: HEK293 clonal lines with CRISPR KI HiBiT tag on CDK2 proteins and stably expressing LgBiT protein were obtained from Promega (Madison, WI). Cells were plated at 5000 cells per well using Multiflo (BioTek) in 384-well white solid bottom plates (Corning, 3570BC) in 25 ul volume in DMEM media (DMEM, high glucose, HEPES, no phenol red (ThermoFisher Scientific, 21063029)) containing 10% FBS (Corning, 35-075-CV), 1% Penicillin/Streptomycin (ThermoFisher Scientific, 15140-122). Cells were incubated for 16 hours at 37° C., 5% CO2. 75 nL of a compound at 30 μM were dosed into the plate using an Echo® 650 liquid handler (Labcyte). Cells were incubated at 37° C., 5% CO2 for 24 hours. 5 ul of HiBiT Lysis Reagent (Promega, N3030) is added using Combi Multidrop (ThermoFisher Scientific), plates are incubated for 15′ at 37° C., 5% CO2 and then signal was read on a Pherastar FSX using “LUM plus” optic module.
Analysis was performed in Scinamic (Scinamic, Cambridge, MA). Luminescence response (R) was calculated by the formula: response=100*(S−N)/(P−N) where S is the signal of the well, N and P the mean negative and positive control values respectively of the same plate. The luminescence response was then fitted in Scinamic using a 3-parameter agonist logistic fit (hillslope=1, EC50>0, top/bottom unconstrained).

CRBN-DDB1, sequence (Q96SW2 whole entry): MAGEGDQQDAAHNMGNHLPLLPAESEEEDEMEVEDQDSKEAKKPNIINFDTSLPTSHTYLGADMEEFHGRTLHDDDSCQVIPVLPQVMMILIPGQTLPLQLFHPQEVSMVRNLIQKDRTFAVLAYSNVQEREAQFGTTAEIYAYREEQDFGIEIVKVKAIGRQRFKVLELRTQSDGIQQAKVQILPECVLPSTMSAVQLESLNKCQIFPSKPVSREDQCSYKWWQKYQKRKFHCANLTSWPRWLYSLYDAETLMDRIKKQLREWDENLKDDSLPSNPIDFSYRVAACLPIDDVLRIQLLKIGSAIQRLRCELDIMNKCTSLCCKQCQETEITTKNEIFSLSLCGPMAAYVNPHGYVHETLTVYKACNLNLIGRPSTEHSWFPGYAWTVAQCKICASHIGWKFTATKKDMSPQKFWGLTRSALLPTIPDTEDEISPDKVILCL
CRBN-DDB1, sequence (Q16531 whole entry partner): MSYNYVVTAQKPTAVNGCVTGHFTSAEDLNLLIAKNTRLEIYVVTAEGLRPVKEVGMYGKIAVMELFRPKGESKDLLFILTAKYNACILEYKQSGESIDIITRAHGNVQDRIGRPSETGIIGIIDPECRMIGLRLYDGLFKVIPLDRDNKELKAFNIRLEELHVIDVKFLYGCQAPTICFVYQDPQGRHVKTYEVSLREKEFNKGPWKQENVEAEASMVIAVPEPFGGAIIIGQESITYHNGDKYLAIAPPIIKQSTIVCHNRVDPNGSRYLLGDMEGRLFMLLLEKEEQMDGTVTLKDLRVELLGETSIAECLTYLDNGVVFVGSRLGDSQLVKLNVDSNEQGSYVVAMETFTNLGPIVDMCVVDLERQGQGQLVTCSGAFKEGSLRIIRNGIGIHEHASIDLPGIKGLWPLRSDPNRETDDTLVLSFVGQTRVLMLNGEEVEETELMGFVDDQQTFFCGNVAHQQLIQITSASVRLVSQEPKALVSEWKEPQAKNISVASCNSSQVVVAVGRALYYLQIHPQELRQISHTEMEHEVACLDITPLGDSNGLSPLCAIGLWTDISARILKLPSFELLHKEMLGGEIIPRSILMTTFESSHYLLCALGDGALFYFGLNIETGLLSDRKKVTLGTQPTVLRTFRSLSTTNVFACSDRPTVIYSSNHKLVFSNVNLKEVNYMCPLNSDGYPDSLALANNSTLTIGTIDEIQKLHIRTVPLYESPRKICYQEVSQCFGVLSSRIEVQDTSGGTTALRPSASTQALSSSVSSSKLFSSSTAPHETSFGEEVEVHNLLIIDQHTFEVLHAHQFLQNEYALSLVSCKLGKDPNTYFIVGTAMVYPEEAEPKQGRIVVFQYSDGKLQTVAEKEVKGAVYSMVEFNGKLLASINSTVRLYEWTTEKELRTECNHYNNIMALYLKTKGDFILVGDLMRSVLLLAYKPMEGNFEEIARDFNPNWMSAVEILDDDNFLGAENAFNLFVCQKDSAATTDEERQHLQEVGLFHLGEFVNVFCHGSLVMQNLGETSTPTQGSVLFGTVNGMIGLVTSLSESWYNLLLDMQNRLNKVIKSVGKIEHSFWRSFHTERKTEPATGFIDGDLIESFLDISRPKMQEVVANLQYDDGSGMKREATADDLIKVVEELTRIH

| SMILES | pKi (CRBN-DDB1) | Dmax (CDK2) [%] |
| --- | --- | --- |
| O=C1CCC(N2Cc3ccc(CNC(=O)OCc4ccc(CC(F)(F)F)cc4)cc3C2=O)C(=O)N1 (centres unmarked) [Compound 42, [4-(2,2,2-trifluoroethyl)phenyl]methyl N-{[2-(2,6-dioxopiperidin-3-yl)-3-oxo-2,3-dihydro-1H-isoindol-5-yl]methyl}carbamate] | ≥ 7.00 | 10 to 50 |
| O=C1CCC(N2Cc3ccc(CNC(=O)OCc4ccccc4)cc3C2=O)C(=O)N1 (centres unmarked) [Compound 20, benzyl ((2-(2,6-dioxopiperidin-3-yl)-3-oxoisoindolin-5-yl)methyl)carbamate] | 6.00 to 7.00 | 10 to 50 |
| COc1ccc(-c2cccc(COC(=O)NCc3ccc4c(c3)C(=O)N(C3CCC(=O)NC3=O)C4)c2)cc1 (centres unmarked) [Compound 58, {4′-methoxy-[1,1′-biphenyl]-3-yl}methyl N-{[2-(2,6-dioxopiperidin-3-yl)-3-oxo-2,3-dihydro-1H-isoindol-5-yl]methyl}carbamate] | ≥ 7.00 | 10 to 50 |
| O=C1CCC(N2Cc3ccc(CNC(=O)OCc4ccc(OCC(F)(F)F)cc4)cc3C2=O)C(=O)N1 (centres unmarked) [Compound 62, [4-(2,2,2-trifluoroethoxy)phenyl]methyl N-{[2-(2,6-dioxopiperidin-3-yl)-3-oxo-2,3-dihydro-1H-isoindol-5-yl]methyl}carbamate] | ≥ 7.00 | 10 to 50 |
| CCC(COC(=O)NCc1ccc2c(c1)C(=O)N(C1CCC(=O)NC1=O)C2)c1ccccc1 (centres unmarked) [Compound 67, 2-phenylbutyl N-{[2-(2,6-dioxopiperidin-3-yl)-3-oxo-2,3-dihydro-1H-isoindol-5-yl]methyl}carbamate] | 6.00 to 7.00 | 10 to 50 |
| O=C1CCC(N2Cc3ccc(CNC(=O)OCc4cccc(C(F)(F)F)c4)cc3C2=O)C(=O)N1 (centres unmarked) [Compound 31, [3-(trifluoromethyl)phenyl]methyl N-{[2-(2,6-dioxopiperidin-3-yl)-3-oxo-2,3-dihydro-1H-isoindol-5-yl]methyl}carbamate] | ≥ 7.00 | 10 to 50 |
| N#Cc1cc(CNc2nnc(-c3ccccc3)o2)cc2c1CN(C1CCC(=O)NC1=O)C2=O (centres unmarked) [Compound 70, 2-(2,6-dioxopiperidin-3-yl)-1-oxo-6-(((5-phenyl-1,3,4-oxadiazol-2-yl)amino)methyl)isoindoline-4-carbonitrile] | 6.00 to 7.00 | 10 to 50 |
| O=C1CCC(N2Cc3ccc(CNC(=O)OCc4cncc(-c5ccccc5)c4)cc3C2=O)C(=O)N1 (centres unmarked) [Compound 13, (5-phenylpyridin-3-yl)methyl ((2-(2,6-dioxopiperidin-3-yl)-3-oxoisoindolin-5-yl)methyl)carbamate] | ≥ 7.00 | 10 to 50 |
| CC(C)Oc1cccc(COC(=O)NCc2ccc3c(c2)C(=O)N(C2CCC(=O)NC2=O)C3)c1 (centres unmarked) [Compound 38, [3-(propan-2-yloxy)phenyl]methyl N-{[2-(2,6-dioxopiperidin-3-yl)-3-oxo-2,3-dihydro-1H-isoindol-5-yl]methyl}carbamate] | 6.00 to 7.00 | 10 to 50 |
| O=C1CCC(N2Cc3ccc(CNC(=O)OCc4ccc(OC(F)(F)F)cc4F)cc3C2=O)C(=O)N1 (centres unmarked) [Compound 57, [2-fluoro-4-(trifluoromethoxy)phenyl]methyl N-{[2-(2,6-dioxopiperidin-3-yl)-3-oxo-2,3-dihydro-1H-isoindol-5-yl]methyl}carbamate] | ≥ 7.00 | 10 to 50 |
| O=C1CCC(N2Cc3ccc(CNc4nnc(-c5ccccc5)o4)cc3C2=O)C(=O)N1 (centres unmarked) [Compound 72, 3-(1-oxo-6-(((5-phenyl-1,3,4-oxadiazol-2-yl)amino)methyl)isoindolin-2-yl)piperidine-2,6-dione] | ≥ 7.00 | 10 to 50 |
| O=C1CCC(N2Cc3ccc(CNC(=O)OCc4ccc([N+](=O)[O-])cc4)cc3C2=O)C(=O)N1 (centres unmarked) [Compound 26, (4-nitrophenyl)methyl N-{[2-(2,6-dioxopiperidin-3-yl)-3-oxo-2,3-dihydro-1H-isoindol-5-yl]methyl}carbamate] | 6.00 to 7.00 | 10 to 50 |
| COc1ccc2cc(COC(=O)NCc3ccc4c(c3)C(=O)N(C3CCC(=O)NC3=O)C4)ccc2c1 (centres unmarked) [Compound 28, (6-methoxynaphthalen-2-yl)methyl N-{[2-(2,6-dioxopiperidin-3-yl)-3-oxo-2,3-dihydro-1H-isoindol-5-yl]methyl}carbamate] | 6.00 to 7.00 | ≤ 10 |
| O=C1CCC(N2Cc3ccc(CNc4nnc(-c5ccc(OC(F)(F)F)cc5)o4)c(O)c3C2=O)C(=O)N1 (centres unmarked) [Compound 75, 3-(7-hydroxy-1-oxo-6-(((5-(4-(trifluoromethoxy)phenyl)-1,3,4-oxadiazol-2-yl)amino)methyl)isoindolin-2-yl)piperidine-2,6-dione] | 6.00 to 7.00 | 10 to 50 |
| O=C1CCC(N2Cc3ccc(CNC(=O)OCc4cccc(-c5ccc(C(F)(F)F)cc5)c4)cc3C2=O)C(=O)N1 (centres unmarked) [Compound 9, (4′-(trifluoromethyl)-[1,1′-biphenyl]-3-yl)methyl((2-(2,6-dioxopiperidin-3-yl)-3-oxoisoindolin-5-yl)methyl)carbamate] | 6.00 to 7.00 | 50 to 80 |
| O=C1CCC(N2Cc3ccc(CNC(=O)OCc4cccc(-c5ccc(F)cc5)c4)cc3C2=O)C(=O)N1 (centres unmarked) [Compound 51, {4′-fluoro-[1,1′-biphenyl]-3-yl}methyl N-{[2-(2,6-dioxopiperidin-3-yl)-3-oxo-2,3-dihydro-1H-isoindol-5-yl]methyl}carbamate] | 6.00 to 7.00 | 10 to 50 |
| O=C1CCC(N2Cc3ccc(CNC(=O)OCc4ccc(OCC(F)(F)F)nc4)cc3C2=O)C(=O)N1 (centres unmarked) [Compound 61, [6-(2,2,2-trifluoroethoxy)pyridin-3-yl]methyl N-{[2-(2,6-dioxopiperidin-3-yl)-3-oxo-2,3-dihydro-1H-isoindol-5-yl]methyl}carbamate] | ≥ 7.00 | 10 to 50 |
| O=C1CCC(N2Cc3ccc(CNC(=O)OCc4ccc(C#CC(F)(F)F)cc4)cc3C2=O)C(=O)N1 (centres unmarked) [Compound 50, [4-(3,3,3-trifluoroprop-1-yn-1-yl)phenyl]methyl N-{[2-(2,6-dioxopiperidin-3-yl)-3-oxo-2,3-dihydro-1H-isoindol-5-yl]methyl}carbamate] | 6.00 to 7.00 | 10 to 50 |
| O=C1CCC(N2Cc3ccc(CNC(=O)OCc4cccc(-c5cccc(C(F)(F)F)c5)c4)cc3C2=O)C(=O)N1 (centres unmarked) [Compound 11, (3′-(trifluoromethyl)-[1,1′-biphenyl]-3-yl)methyl ((2-(2,6-dioxopiperidin-3-yl)-3-oxoisoindolin-5-yl)methyl)carbamate] | 6.00 to 7.00 | 50 to 80 |
| O=C1CCC(N2Cc3ccc(CNC(=O)OCCc4ccccc4)cc3C2=O)C(=O)N1 (centres unmarked) [Compound 22, 2-phenylethyl N-{[2-(2,6-dioxopiperidin-3-yl)-3-oxo-2,3-dihydro-1H-isoindol-5-yl]methyl}carbamate] | ≥ 7.00 | 10 to 50 |
| CC(C)(c1ccc(COC(=O)NCc2ccc3c(c2)C(=O)N(C2CCC(=O)NC2=O)C3)cc1)C(F)(F)F (centres unmarked) [Compound 63, [4-(1,1,1-trifluoro-2-methylpropan-2-yl)phenyl]methyl N-{[2-(2,6-dioxopiperidin-3-yl)-3-oxo-2,3-dihydro-1H-isoindol-5-yl]methyl}carbamate] | ≥ 7.00 | 10 to 50 |
| O=C1CCC(N2Cc3ccc(CNC(=O)OCc4ccc(OC5CCOCC5)nc4)cc3C2=O)C(=O)N1 (centres unmarked) [Compound 65, [6-(oxan-4-yloxy)pyridin-3-yl]methyl N-{[2-(2,6-dioxopiperidin-3-yl)-3-oxo-2,3-dihydro-1H-isoindol-5-yl]methyl}carbamate] | ≥ 7.00 | 10 to 50 |
